Patent publication US9902736B2, “1-oxo/acylation-14-acylated oridonin derivative, preparation method therefor and application thereof” (HANGZHOU BENSHENG PHARMACEUTICAL CO., LTD., priority 2012, dated 2018)
Converted amounts (≈) assume the structure as drawn.

Legend:
RPMI 8226 = experiment: Multiple myeloma cell growth inhibition, MTT, 72 h; assay type: cell-based; details: Homo sapiens
Experimental: Multiple myeloma cell lines: RPMI8226 (multiple myeloma), purchased from Fuxiang Bio-tech Co. Ltd., Shanghai, China.
(§1) 6000 well-growing cells were obtained and inoculated into wells of a 96-well cell culture plate. […] On the next day, the 1-oxo/acylated-14-acylated oridonin derivatives of different concentrations were added and mixed uniformly. The plate was placed in a carbon dioxide cell incubator (5% CO2) at 37° C. and incubated for 72 hours. Then the viable cell concentration was determined by MTT method.

Hela = experiment: Solid tumor cell growth inhibition, MTT, 72 h; assay type: cell-based, human; details: Homo sapiens, HeLa; 72 h, MTT
Experimental: (§2) 6000 well-growing human solid tumor cells were obtained and inoculated into wells of a 96-well cell culture plate. The culture medium was DMEM High Glucose cell culture medium containing 10% fetal bovine serum. The plate was placed in a carbon dioxide cell incubator (5% CO2) at 37° C. and incubated for 24 hours. After added with 1-oxo/acylated-14-acylated oridonin derivatives of different concentration and mixed uniformly, the plate was placed in a carbon dioxide cell incubator (5% CO2) at 37° C. and incubated for 72 hours. Then the viable cell concentration was determined by MTT method.

Hep-2 = experiment: Solid tumor cell growth inhibition, MTT, 72 h; assay type: cell-based, human; details: Homo sapiens, HEp-2; 72 h, MTT
Experimental: as §2

CNE = experiment: Solid tumor cell growth inhibition, MTT, 72 h; assay type: cell-based, human; details: Homo sapiens, CNE; 72 h, MTT
Experimental: as §2

MGC-803 = experiment: Solid tumor cell growth inhibition, MTT, 72 h; assay type: cell-based, human; details: Homo sapiens, MGC-803; 72 h, MTT
Experimental: as §2

NB4 = experiment: Leukemia cell growth inhibition, MTT, 72 h; assay type: cell-based, human; details: Homo sapiens, NB-4; 72 h, MTT
Text: (§3) Leukemia cell lines: leukemia cell lines: K562/adr (drug-resistant, chronic myeloid leukemia, CML), NB4 (acute promyelocytic leukemia, AML), Kasumi-1 (acute myeloid leukemia M2 type, AML-M2), Jurkat (acute lymphoblastic leukemia, ALL), all of which were donated by Cancer Research Institute of Zhejiang University, China; and H9 (acute lymphoblastic leukemia, ALL), which was purchased from China Center for Type Culture Collection.
as §1, with “6000 well-growing leukemia cells were” for “6000 well-growing cells were”, “C. and was incubated for” for “C. and incubated for”

Jurkat = experiment: Leukemia cell growth inhibition, MTT, 72 h; assay type: cell-based, human; details: Homo sapiens, Jurkat; 72 h, MTT
Text: as §3
as §1, with “6000 well-growing leukemia cells were” for “6000 well-growing cells were”, “C. and was incubated for” for “C. and incubated for”

H9 = experiment: Leukemia cell growth inhibition, MTT, 72 h; assay type: cell-based, human; details: Homo sapiens, H9; 72 h, MTT
Text: as §3
as §1, with “6000 well-growing leukemia cells were” for “6000 well-growing cells were”, “C. and was incubated for” for “C. and incubated for”

RKO = experiment: Solid tumor cell growth inhibition, MTT, 72 h; assay type: cell-based; details: Homo sapiens
Experimental: as §2

Becap-37 = experiment: Solid tumor cell growth inhibition, MTT, 72 h; assay type: cell-based; details: Homo sapiens
Experimental: as §2

U87-MG = experiment: Solid tumor cell growth inhibition, MTT, 72 h; assay type: cell-based; details: Homo sapiens, U-87 MG
Experimental: as §2

SK-OV-3 = experiment: Solid tumor cell growth inhibition, MTT, 72 h; assay type: cell-based; details: Homo sapiens, SK-OV-3, 72 h, MTT; for IC50: read-out: IC50 SK-OV-3; for IC90: read-out: IC90 SK-OV-3
Experimental: as §2

PC-3 = experiment: Solid tumor cell growth inhibition, MTT, 72 h; assay type: cell-based; details: Homo sapiens
Experimental: as §2

Hep G2 = experiment: Solid tumor cell growth inhibition, MTT, 72 h; assay type: cell-based; details: Homo sapiens, HepG2
Experimental: as §2

PANC-1 = experiment: Solid tumor cell growth inhibition, MTT, 72 h; assay type: cell-based; details: Homo sapiens
Experimental: as §2

MG-63 = experiment: Solid tumor cell growth inhibition, MTT, 72 h; assay type: cell-based; details: Homo sapiens
Experimental: as §2

A549 = experiment: Solid tumor cell growth inhibition, MTT, 72 h; assay type: cell-based; details: Homo sapiens
Experimental: as §2

CaEs-17 = experiment: Solid tumor cell growth inhibition, MTT, 72 h; assay type: cell-based; details: Homo sapiens, CaEs17
Experimental: as §2

Kasumi-1 = experiment: Leukemia cell growth inhibition, MTT, 72 h; assay type: cell-based; details: Homo sapiens
Text: as §3
as §1, with “6000 well-growing leukemia cells were” for “6000 well-growing cells were”, “C. and was incubated for” for “C. and incubated for”

K562/ADR = experiment: Leukemia cell growth inhibition, MTT, 72 h; assay type: cell-based; details: Homo sapiens
Text: as §3
as §1, with “6000 well-growing leukemia cells were” for “6000 well-growing cells were”, “C. and was incubated for” for “C. and incubated for”

Compound | IC50 (RPMI 8226) [µg/mL] | IC90 (RPMI 8226) [µg/mL] | IC50 (Hela) [µg/mL] | IC90 (Hela) [µg/mL] | IC50 (Hep-2) [µg/mL] | IC90 (Hep-2) [µg/mL] | IC50 (CNE) [µg/mL] | IC90 (CNE) [µg/mL] | IC50 (MGC-803) [µg/mL] | IC90 (MGC-803) [µg/mL] | IC50 (NB4) [µg/mL] | IC90 (NB4) [µg/mL] | IC50 (Jurkat) [µg/mL] | IC90 (Jurkat) [µg/mL] | IC50 (H9) [µg/mL] | IC90 (H9) [µg/mL] | IC50 (RKO) [µg/mL] | IC90 (RKO) [µg/mL] | IC50 (Becap-37) [µg/mL] | IC90 (Becap-37) [µg/mL] | other results
C=C1C(=O)[C@]23[C@H](OC(=O)c4cccc(C)c4)[C@H]1CC[C@H]2[C@@]12CO[C@@]3(O)[C@@H](O)[C@@H]1C(C)(C)CCC2=O [BS-OR-008] | 0.37 (≈ 0.77 µM) | 1.72 (≈ 3.58 µM) | 1.45 (≈ 3.02 µM) | 3.9 (≈ 8.12 µM) | 3.11 (≈ 6.47 µM) | 13.2 (≈ 27.4 µM) | 2.16 (≈ 4.49 µM) | 10.5 (≈ 21.8 µM) | 1.39 (≈ 2.89 µM) | 3.89 (≈ 8.09 µM) | 0.29 (≈ 0.603 µM) | 0.92 (≈ 1.91 µM) | 0.73 (≈ 1.52 µM) | 2.6 (≈ 5.41 µM) | 0.76 (≈ 1.58 µM) | 1.79 (≈ 3.72 µM) | 0.47 (≈ 0.978 µM) | 0.94 (≈ 1.96 µM) | 1.08 (≈ 2.25 µM) | 3.35 (≈ 6.97 µM) | IC50 (U87-MG): 0.86 µg/mL (≈ 1.79 µM); IC90 (U87-MG): 2.4 µg/mL (≈ 4.99 µM); IC50 (SK-OV-3): 1.59 µg/mL (≈ 3.31 µM); IC90 (SK-OV-3): 3.67 µg/mL (≈ 7.64 µM); IC50 (PC-3): 1.59 µg/mL (≈ 3.31 µM); IC90 (PC-3): 3.67 µg/mL (≈ 7.64 µM); IC50 (Hep G2): 1.74 µg/mL (≈ 3.62 µM); IC90 (Hep G2): 12.6 µg/mL (≈ 26.2 µM); IC50 (PANC-1): 1.73 µg/mL (≈ 3.6 µM); IC90 (PANC-1): 11.4 µg/mL (≈ 23.6 µM); IC50 (MG-63): 0.42 µg/mL (≈ 0.874 µM); IC90 (MG-63): 0.98 µg/mL (≈ 2.04 µM); IC50 (A549): 2.75 µg/mL (≈ 5.72 µM); IC90 (A549): 6.86 µg/mL (≈ 14.3 µM); IC50 (CaEs-17): 1.22 µg/mL (≈ 2.54 µM); IC90 (CaEs-17): 4.75 µg/mL (≈ 9.88 µM); IC50 (Kasumi-1): 0.73 µg/mL (≈ 1.52 µM); IC90 (Kasumi-1): 1.84 µg/mL (≈ 3.83 µM); IC50 (K562/ADR): 0.52 µg/mL (≈ 1.08 µM); IC90 (K562/ADR): 2.33 µg/mL (≈ 4.85 µM)
C=C1C(=O)[C@]23[C@H](OC(=O)c4cccnc4)[C@H]1CC[C@H]2[C@@]12CO[C@@]3(O)[C@@H](O)[C@@H]1C(C)(C)CCC2=O [BS-OR-011] | 0.9 (≈ 1.93 µM) | 1.93 (≈ 4.13 µM) | 2.53 (≈ 5.41 µM) | 6.79 (≈ 14.5 µM) | 3.8 (≈ 8.13 µM) | 14.1 (≈ 30.1 µM) | 2.26 (≈ 4.83 µM) | 8.1 (≈ 17.3 µM) | 1.6 (≈ 3.42 µM) | 11.9 (≈ 25.5 µM) | 0.27 (≈ 0.578 µM) | 0.9 (≈ 1.93 µM) | 0.87 (≈ 1.86 µM) | 5.24 (≈ 11.2 µM) | 0.56 (≈ 1.2 µM) | 1.23 (≈ 2.63 µM) | 0.59 (≈ 1.26 µM) | 1.44 (≈ 3.08 µM) | 1.96 (≈ 4.19 µM) | 6.11 (≈ 13.1 µM) | IC50 (U87-MG): 1.17 µg/mL (≈ 2.5 µM); IC90 (U87-MG): 3.29 µg/mL (≈ 7.04 µM); IC50 (SK-OV-3): 2.53 µg/mL (≈ 5.41 µM); IC90 (SK-OV-3): 4.87 µg/mL (≈ 10.4 µM); IC50 (PC-3): 2.53 µg/mL (≈ 5.41 µM); IC90 (PC-3): 4.87 µg/mL (≈ 10.4 µM); IC50 (Hep G2): 2.53 µg/mL (≈ 5.41 µM); IC90 (Hep G2): 12.6 µg/mL (≈ 27 µM); IC50 (PANC-1): 2.99 µg/mL (≈ 6.4 µM); IC90 (PANC-1): 7.92 µg/mL (≈ 16.9 µM); IC50 (MG-63): 0.74 µg/mL (≈ 1.58 µM); IC90 (MG-63): 3.01 µg/mL (≈ 6.44 µM); IC50 (A549): 5.58 µg/mL (≈ 11.9 µM); IC90 (A549): 9.47 µg/mL (≈ 20.3 µM); IC50 (CaEs-17): 1.41 µg/mL (≈ 3.02 µM); IC90 (CaEs-17): 5.24 µg/mL (≈ 11.2 µM); IC50 (Kasumi-1): 1.03 µg/mL (≈ 2.2 µM); IC90 (Kasumi-1): 1.94 µg/mL (≈ 4.15 µM); IC50 (K562/ADR): 0.75 µg/mL (≈ 1.6 µM); IC90 (K562/ADR): 2.35 µg/mL (≈ 5.03 µM)
C=C1C(=O)[C@]23[C@H](OC(=O)/C=C/c4ccccc4)[C@H]1CC[C@H]2[C@@]12CO[C@@]3(O)[C@@H](O)[C@@H]1C(C)(C)CCC2=O [BS-OR-019] | 0.34 (≈ 0.69 µM) | 1.7 (≈ 3.45 µM) | 1.43 (≈ 2.9 µM) | 3.74 (≈ 7.59 µM) | 10.7 (≈ 21.7 µM) | > 16 | 7.19 (≈ 14.6 µM) | > 16 | 4.98 (≈ 10.1 µM) | 12 (≈ 24.4 µM) | 1.02 (≈ 2.07 µM) | 3.66 (≈ 7.43 µM) | 0.58 (≈ 1.18 µM) | 2.48 (≈ 5.03 µM) | 2.69 (≈ 5.46 µM) | 5.41 (≈ 11 µM) | 0.38 (≈ 0.771 µM) | 0.89 (≈ 1.81 µM) | 0.89 (≈ 1.81 µM) | 8.43 (≈ 17.1 µM) | IC50 (U87-MG): 0.77 µg/mL (≈ 1.56 µM); IC90 (U87-MG): 2.43 µg/mL (≈ 4.93 µM); IC50 (SK-OV-3): 1.41 µg/mL (≈ 2.86 µM); IC90 (SK-OV-3): 3.86 µg/mL (≈ 7.84 µM); IC50 (PC-3): 1.41 µg/mL (≈ 2.86 µM); IC90 (PC-3): 3.86 µg/mL (≈ 7.84 µM); IC50 (Hep G2): 0.94 µg/mL (≈ 1.91 µM); IC90 (Hep G2): 14.6 µg/mL (≈ 29.7 µM); IC50 (PANC-1): 1.53 µg/mL (≈ 3.11 µM); IC90 (PANC-1): 9.62 µg/mL (≈ 19.5 µM); IC50 (MG-63): 0.35 µg/mL (≈ 0.711 µM); IC90 (MG-63): 0.79 µg/mL (≈ 1.6 µM); IC50 (A549): 1.66 µg/mL (≈ 3.37 µM); IC90 (A549): 4.43 µg/mL (≈ 8.99 µM); IC50 (CaEs-17): 0.89 µg/mL (≈ 1.81 µM); IC90 (CaEs-17): 5.62 µg/mL (≈ 11.4 µM); IC50 (Kasumi-1): 0.58 µg/mL (≈ 1.18 µM); IC90 (Kasumi-1): 1.55 µg/mL (≈ 3.15 µM); IC50 (K562/ADR): 0.43 µg/mL (≈ 0.873 µM); IC90 (K562/ADR): 1.74 µg/mL (≈ 3.53 µM)
